Experimental data published in patent US20060030549A1, “Paricalcitol(zemplar) capsule controls secondary hyperparathyroidism (SHPT) in CKD stage 5 patients” (priority 2003, published 2006).

Tested on: CKD stage 5 subjects on hemodialysis (HD) or peritoneal dialysis (PD)
Assay: Double-blind, placebo-controlled, multicenter studies of paricalcitol capsule in secondary hyperparathyroidism
Format: in vivo, human
Conditions: for duration of iPTH/PTH reduction: HD and PD subjects, 12-week treatment; for AE (adverse event) profile: versus placebo group
Procedure: Paricalcitol capsule is an oral formulation of paricalcitol injection, a vitamin D analog effective in the prevention and treatment of SHPT associated with chronic renal failure. Three doubleblind, placebo-controlled, multicenter studies were conducted to evaluate the safety and efficacy of paricalcitol capsule in CKD stage 5 subjects on hemodialysis (HD) or peritoneal dialysis (PD). After a 4-8 week washout period, 225 subjects (HD: 150, PD: 75) with iPTH≧300 pg/mL, serum Ca 8.0-10.5 mg/dL and Ca×P04<65 were randomized (1:1) and treated with paricalcitol capsule or placebo 3× weekly for 12 weeks. Initial doses were based on iPTH levels at baseline (initial mcg dose=iPTH/60). Subsequent dose adjustments of 2 mcg were based on the weekly Ca, Ca×P04, and iPTH results; dose increases occurred every 2 weeks and decreases once per week.

mean serum P04, maximum value (increased initially to the maximum, then decreased): 5.7 mg/dL | mean Ca (throughout 12-week treatment): under 10.0 mg/dL
Compound: C[C@H](/C=C/[C@H](C)C(C)(C)O)[C@H]1CC[C@H]2/C(=C/C=C3C[C@@H](O)C[C@H](O)C3)CCC[C@]12C [paricalcitol]
subjects with 2 consecutive 30 decreases in iPTH (95/105 subjects, capsule 3x weekly for 12 weeks, initial mcg dose = iPTH/60, p<0.001 vs placebo): 90% | duration of iPTH/PTH reduction: sustained throughout the treatment | duration of iPTH/PTH reduction (listed as paricalcitol capsule): sustained reduction of PTH | mean iPTH reduction (by Week 3, 3x weekly dosing): 30% | influence of subject factors on efficacy (demographics, disease severity, baseline P04, phosphate binder type): not influenced by demographics, disease severity, baseline P04 or types of phosphate binder usage | AE (adverse event) profile: comparable between the groups | AE (adverse event) profile (listed as paricalcitol capsule): comparable to placebo
